Measured values published in US6545151B2, “Pentacyclic compound” (Daiichi Pharmaceutical Co., Ltd., priority 1995, dated 2003).
Values after ≈ are worked out from the molar mass of the structure shown.

Experiments:
P388 = assay: MTT cell proliferation test, P388; assay type: cell-based; conditions: P388 tumor cell line, cultured for 3 days, absorbance at 540 nm
Experimental: (§1) Cells of each of three tumor cell lines, P388, PC-6 and PC-12, were inoculated into a 96 well microplate in an inoculum size of 5.0×10^2 cells/150 μl/well (P388), 5.0×10^3 cells/150 μl/well (PC-6) or 1.0×10^3 cells/150 μl/well (PC-12), and 50 μl/well of each sample was added to the plate 2 hours thereafter in the case of P388 or 24 hours thereafter in the case of the other two. Thereafter, the cells were cultured for 3 days and then 5 mg/ml solution of MTT [3-(4,5-dimethylthiazol-2-yl)-2,5-diphenyl-2H-tetrazolium bromide] was dispensed in 20 μl/well portions into wells of the microplate. Four hours thereafter, the culture medium was removed, 150 μl of dimethyl sulfoxide was added to each well and then absorbance at 540 nm was measured. The antitumor effect is shown as GI50 value (ng/ml) of each drug which decreases cell proliferation in each drug-added group to 50% of that in the control group.

PC-12 = assay: MTT cell proliferation test, PC-12; assay type: cell-based; conditions: PC-12 tumor cell line, cultured for 3 days, absorbance at 540 nm
Experimental: as §1

PC-6 = assay: MTT cell proliferation test, PC-6; assay type: cell-based; conditions: PC-6 tumor cell line, cultured for 3 days, absorbance at 540 nm
Experimental: as §1

[1] = test system: digestive organ cancers, especially large bowel cancers; conditions: clinical tests; cited from earlier work

Compound	GI50 value (P388) [ng/mL]	GI50 value (PC-12) [ng/mL]	GI50 value (PC-6) [ng/mL]	efficacy on digestive organ cancers, especially large bowel cancers [1]
7α,9β-4-O-Butanoyl-13-O-[(2R,3R)-3-(tert-butoxycarbonylamino)-3-(2-furyl)-2-hydroxypropionyl]-7-deoxy-4,10-dideacetyl-9-dihydro-7-fluoro-9,10-O-(2-morpholinoethylidene)baccatin III [Inventive Example 81]	0.0048	0.050	0.0604	
9β-4-O-Butanoyl-13-O-[(2R,3R)-3-(tert-butoxycarbonylamino)-3-(2-furyl)-2-hydroxypropionyl]-4,10-dideacetyl-9-dihydro-9,10-O-(2-morpholinoethylidene)baccatin III [Inventive Example 22]	0.0193	0.181	0.187	
9β-13-O-[3-(tert-Butoxycarbonylamino)-2-hydroxy-2-methyl-3-(4-pyridyl)propionyl]-4,10-dideacetyl-9-dihydro-4-O-ethoxycarbonyl-9,10-O-isopropylidenebaccatin III [Inventive Example 101]	0.0301	0.125	0.409	
9β-13-O-[3-(tert-Butoxycarbonylamino)-2-hydroxy-2-methyl-3-(4-pyridyl)propionyl]-4,10-dideacetyl-9-dihydro-9,10-O-isopropylidene-4-O-propionylbaccatin III [Inventive Example 90]	0.0519	0.0943	0.209	
9β-13-O-[3-(tert-Butoxycarbonylamino)-2-hydroxy-2-methyl-3-(4-pyridyl)propionyl]-4-O-cyclopropanecarbonyl-4,10-dideacetyl-7-deoxy-9-dihydro-9,10-O-isopropylidenebaccatin III [Inventive Example 65]	0.00509	0.0684	0.278	
9β-13-O-[3-(tert-Butoxycarbonylamino)-2-hydroxy-2-methyl-3-(4-pyridyl)propionyl]-4-O-cyclopropanecarbonyl-4,10-dideacetyl-9-dihydro-9,10-O-isopropylidenebaccatin III [Inventive Example 60]	0.0129	0.0698	0.395	
9β-13-O-[3-(tert-Butoxycarbonylamino)-2-hydroxy-2-methyl-3-(4-pyridyl)propionyl]-4-O-cyclopropanecarbonyl-7-deoxy-4,10-dideacetyl-6,7-didehydro-9-dihydro-9,10-O-isopropylidenebaccatin III [Inventive Example 121]	0.00173	0.0498	0.803	
9β-13-O-[3-(tert-Butoxycarbonylamino)-2-hydroxy-2-methyl-3-(4-pyridyl)propionyl]-10-deacetyl-7-deoxy-9-dihydro-9,10-O-isopropylidenebaccatin III [Inventive Example 95]	0.0034	0.0121	0.0992	
9β-13-O-[3-(tert-Butoxycarbonylamino)-3-(2-furyl)-2-hydroxy-2-methylpropionyl]-4-O-cyclopropanecarbonyl-4,10-dideacetyl-9-dihydro-9,10-O-(2-morpholinoethylidene)baccatin III [Inventive Example 57]	0.0135	0.0739	0.734	
9β-13-O-[(2R,3R)-3-(tert-Butoxycarbonylamino)-2-hydroxy-3-(2-thienyl)propionyl]-10-deacetyl-7-deoxy-9-dihydro-9,10-O-(2-morpholinoethylidene)baccatin III [Inventive Example 98]	0.0126	0.022	0.0696	
9β-13-O-[(2R,3R)-3-(tert-Butoxycarbonylamino)-3-(2-furyl)-2-hydroxypropionyl]-4,10-dideacetyl-9-dihydro-9,10-O-(2-morpholinoethylidene)-4-O-propionylbaccatin III [Inventive Example 25]	0.0549	0.234	1.31	
9β-13-O-[(2R,3R)-3-(tert-Butoxycarbonylamino)-3-(2-furyl)-2-hydroxypropionyl]-4-O-cyclopropanecarbonyl-4,10-dideacetyl-9-dihydro-9,10-O-(2-morpholinoethylidene)baccatin III [Inventive Example 51]	0.00754	0.0669	0.354	
9β-13-O-[(2R,3R)-3-(tert-Butoxycarbonylamino)-3-(2-furyl)-2-hydroxypropionyl]-4-O-cyclopropanecarbonyl-7-deoxy-4,10-dideacetyl-6,7-didehydro-9-dihydro-9,10-O-(2-morpholinoethylidene)baccatin III [Inventive Example 123]	0.0158	0.167	0.366	
9β-13-O-[(2R,3R)-3-(tert-Butoxycarbonylamino)-3-(2-furyl)-2-hydroxypropionyl]-10-deacetyl-7-deoxy-9-dihydro-9,10-O-(2-dimethylaminoethylidene)baccatin III [Inventive Example 105]	0.0475	0.0643	0.190	
9β-13-O-[(2R,3R)-3-(tert-Butoxycarbonylamino)-3-(2-furyl)-2-hydroxypropionyl]-10-deacetyl-7-deoxy-9-dihydro-9,10-O-(2-morpholinoethylidene)baccatin III [Inventive Example 79]	0.00689	0.0264	0.0673	
9β-13-O-[(2R,3S)-3-(tert-Butoxycarbonylamino)-2-hydroxy-3-(2-pyridyl)propionyl]-4-O-cyclopropanecarbonyl-4,10-dideacetyl-9-dihydro-9,10-O-isopropylidenebaccatin III [Inventive Example 69]	0.0161	0.0466	0.0915	
9β-13-O-[(2R,3S)-3-(tert-Butoxycarbonylamino)-2-hydroxy-3-(4-pyridyl)propionyl]-4-O-cyclopropanecarbonyl-4,10-dideacetyl-7-deoxy-9-dihydro-9,10-O-isopropylidenebaccatin III [Inventive Example 70]	0.00137	0.0184	0.160	
9β-13-O-[(2R,3S)-3-(tert-Butoxycarbonylamino)-2-hydroxy-3-phenylpropionyl]-4-O-cyclopropanecarbonyl-4,10-dideacetyl-9-dihydro-9,10-O-(2-morpholinoethylidene)baccatin III [Inventive Example 53]	0.0128	0.0758	0.874	
CC(=O)O[C@H]1C(=O)[C@@]2(C)[C@H]([C@H](OC(=O)c3ccccc3)[C@]3(O)C[C@H](OC(=O)[C@H](O)[C@@H](NC(=O)c4ccccc4)c4ccccc4)C(C)=C1C3(C)C)[C@]1(OC(C)=O)CO[C@@H]1C[C@@H]2O [Taxol, reference compound]	4.36 (≈ 5.11 nM)	82.2 (≈ 96.3 nM)	1.20 (≈ 1.41 nM)	low efficacy
CC(=O)O[C@@]12CO[C@@H]1C[C@H](O)[C@@]1(C)C(=O)[C@H](O)C3=C(C)[C@@H](OC(=O)[C@H](O)[C@@H](NC(=O)OC(C)(C)C)c4ccccc4)C[C@@](O)([C@@H](OC(=O)c4ccccc4)[C@H]21)C3(C)C [Taxotere, reference compound]	1.62 (≈ 2.01 nM)	19.1 (≈ 23.6 nM)	1.16 (≈ 1.44 nM)	low efficacy
